Measured values as given in US20210324281A1, “FUEL DERIVED FROM RENEWABLE RESOURCES” (priority 2018, published 2021).
One block for each compound: values may come before it.

What was measured:
Staphylococcus aureus = assay: Modified broth dilution in biphasic biofuel (Plantanol)/water system, turbidity at 600 nm; assay type: cell-based; settings: for absorbance of the aqueous phase after incubation: medium pre-incubation 0.12, FIG. 20; for amount needed relative to ferulic acid to achieve the same effect: 10 wt.-% versus 0.25 wt.-% ferulic acid in Plantanol
Text: (§1) The growth of microbes in the fuel is one of the main problems of biofuels, as set out above. The aim of the experiments was to investigate the bacterial growth in the biphasic biofuel/water system to see how the addition of an antimicrobial additive to the biofuel has an impact on the microbial growth in the aqueous bacteria solution. For this purpose, the so-called “broth dilution” method was modified and applied to the biphasic (biofuel+additive)/(water+bacteria) system.
(§2) This method represents a standard test for the investigation of bactericidal substances (e.g. antibiotics). At first, bacteria are incorporated in water that contains a nutrient medium (e.g. blood or yeast extracts). The potential antimicrobial agents are then added to the bacteria solution and the mixture is incubated over night at a certain temperature.
(§3) The concentration of bacteria can be measured by means of photometric spectroscopy as the presence of bacteria in a solution lead to turbidity. The higher the turbidity, the more bacteria are present in the solution. […] In some cases, the turbidity even decreases (=bacteria die).
(§4) The above-mentioned method was modified and applied to the biofuel/water system. For this purpose, there was one type of gram-negative (Escherichia coli) and gram-positive bacteria (Staphylococcus aureus) incorporated in each aqueous medium. The so-called “LB-medium” (lysogeny broth) was used as the nutrient medium. The biofuel (with and without additive) was then added to the bacteria solution leading to a phase separation of the biofuel (top) and aqueous medium (bottom).
(§5) The samples were incubated in a so-called incubator shaker, to ensure a good mixing of the two phases. Thereafter, the samples were taken out of the incubator and it was waited until complete phase separation occurred (˜30 minutes). Lastly, the aqueous phase was transferred and measured photometrically at a wavelength of A=600 nm.
(§6) Thus, the turbidity of the aqueous phase solely arises from the bacteria's presence in the water. Depending on the magnitude of the turbidity, it can be concluded whether and how the addition of a certain compound to the biofuel affects the bacterial growth in the aqueous medium.
(§7) For this purpose, different concentrations of antimicrobial substances were added to the biofuel and the effect of these substances on the turbidity of the samples was investigated. On the one hand, hydrophobic, biofuel-soluble bactericides were used (Eugenol, Carvacrol) and on the other hand hydrophilic, biofuel-insoluble substances (caffeic acid, gallic acid, ferulic acid) were used. The glycerol derivative solketal was used to make the hydrophilic substances soluble in the biofuel.
(§8) The chosen concentrations for Grotamar82 and Liqui Moly were the ones recommended by the manufacturer. For both products, there is a recommended concentration for prevention of diesel bug as well as a recommended “shock dosage” in case of an already existing microbial contamination. 1000 ppm of Grotamar82 as well 5000 ppm of the product by Liqui Moly are recommended as a “shock dosage” while 250 ppm and 1000 ppm are recommended to achieve an effective protection against diesel bug.
(§9) Additionally, formaldehyde was added to the Plantanol as the kinetics of the hydrolysis of MBO (cf. the above scheme) in Grotamar82 were not known. Grotamar82 contains about 20% of MBO, according to the manufacturer. Thus, a complete hydrolysis of the MBO in 250 ppm and 1000 ppm Grotamar82 would result in the production of 50 ppm and 200 ppm of formaldehyde respectively.

Escherichia coli = assay: as above; assay type: cell-based; settings: for microbial growth (turbidity of the aqueous phase): FIG. 21; for bacterial growth (turbidity of the aqueous phase) / effect on bacterial growth compared with Staphylococcus aureus: FIG. 19; for effect on bacterial growth compared with Staphylococcus aureus: in Plantanol with solketal
Text: as §1, §2, §3, §4, §5, §6, §7, §8, §9

[1] = RapidOxy oxidative stability measurement (DIN EN 16091, 140° C., 700 kPa oxygen); assay type: physicochemical; settings: for oxidative stability standard according to EN 14214: 500 ppm in Plantanol with 1 wt.-% solketal, FIG. 15; for oxidative stability of the single, pure component: standard: induction time above 33.3 min, FIG. 8
Experimental: In this method, the pressure of a closed, with oxygen filled and afterwards heated sample chamber is measured against time. […] Therefore, the samples are heated up to 140° C. with an oxygen pressure of 700 kPa. […] The incubation time is the period between the start of the experiment and until the pressure dropped by 10% compared to the maximum pressure in the sample chamber. In FIG. 8 etc., this limit is indicated by a dashed line.
For this purpose, the samples were heated up to 140° C. at 700 kPa in an oxygen atmosphere. Thereafter the device measured the pressure with respect to the time. The measurement automatically stopped once a decrease of the pressure of 10% occurred. The time needed for this decrease by 10% is called “induction time” and represents a characteristic quantity for the oxidative stability of a fuel. The quantity “ppm” (parts per million) in the present experimental examples refers to a molar ratio (n/n), if not stated otherwise.

[2] = Solubilisation of hydrophilic antioxidants in biofuel by glycerol derivatives; assay type: physicochemical
Experimental: As a proof of concept, analogous experiments were carried out with the biofuel “Plantanol” from industry. […] The samples were prepared by dissolving the respective antioxidants in solketal.

[3] = 330 ppm in 63/27/10 biodiesel (FAME)/rapeseed oil/solketal, FIG. 14
[4] = 0.1-0.25 wt.-% in Plantanol, solubilised with solketal, FIG. 18
[5] = 333 ppm in 63/27/10 FAME/rapeseed oil/solketal, FIG. 16

SMILES: COc1cc(/C=C/C(=O)O)ccc1O [ferulic acid]
bacterial growth (turbidity of the aqueous phase) (Staphylococcus aureus; 0.1 wt % dissolved in solketal, in Plantanol, FIG. 20): drastically decreases
absorbance of the aqueous phase after incubation (Staphylococcus aureus; 0.25 wt % in solketal/Plantanol): below 0.12
bacterial growth (turbidity of the aqueous phase) (Staphylococcus aureus; 0.25 wt.-% in Plantanol, FIG. 18): complete inhibition
absorbance of the aqueous phase after incubation (Staphylococcus aureus; 0.5 wt % in solketal/Plantanol): below 0.12
microbial growth (turbidity of the aqueous phase) (Escherichia coli; 0.1 wt % in solketal, in Plantanol): significantly decreased microbial growth
microbial growth (turbidity of the aqueous phase) (Escherichia coli; 0.25 wt % in Plantanol): No growth of bacteria was observable
bacterial growth (turbidity of the aqueous phase) (Escherichia coli; 0.25 wt.-% in Plantanol): distinctly reduced it
microbial growth (turbidity of the aqueous phase) (Escherichia coli; 0.50 wt % in Plantanol): No growth of bacteria was observable

oxidative stability standard according to EN 14214 [1]: not reached
SMILES: CC(C)(C)c1cc(O)ccc1O [TBHQ, 2-tert-butyl hydroquinone, reference compound]

amount of solketal found preferable to solubilize the additive ([2]; 0.1 wt % of additive in Plantanol): up to 10 wt %
SMILES: O=C(O)/C=C/c1ccc(O)c(O)c1 [caffeic acid]
oxidative stability of the biofuel (EN 14214) [1, 3]: enough to make the biofuel fulfil the standard
bacterial growth (turbidity of the aqueous phase) (Staphylococcus aureus; [4]): distinctly reduced
effect on bacterial growth compared with Staphylococcus aureus (Escherichia coli): smaller effect on the E.-coli bacteria than they had on the Staphylococcus aureus

SMILES: CCCOC(=O)c1cc(O)c(O)c(O)c1 [propyl gallate]
oxidative stability of the biofuel ([1]; tributyrin system (60 wt.-% FAME, 30 wt.-% rapeseed oil, 10 wt.-% tributyrin), FIG. 12): the higher the concentration of the antioxidant, the better the stability toward oxidation is

oxidative stability of the single, pure component [1]: oxidised nearly as fast as 2-methylfuran
SMILES: CC1(C)OCC(CO)O1 (stereo not shown) [solketal, isopropylideneglycerol]

oxidative stability of the biofuel ([1]; 0.2 wt.-% in solketal system (60 wt.-% FAME, 30 wt.-% rapeseed oil, 10 wt.-% solketal), FIG. 9): distinctly increased
oxidative stability of the biofuel ([1]; 160 ppm in solketal system (60/30/10), FIG. 9): not enough to fulfill the standard
oxidative stability standard according to EN 14214 [1]: not reached
SMILES: Oc1ccc(O)cc1 [hydroquinone, reference compound]
oxidative stability of the biofuel (EN 14214) [1, 3]: enough to make the biofuel fulfil the standard

oxidative stability of the single, pure component [1]: insensitive toward oxidation
SMILES: CCCC(=O)OCC(COC(=O)CCC)OC(=O)CCC [Tributyrin, glycerol tributyrate]

SMILES: C=CCc1ccc(O)c(OC)c1 [Eugenol, reference compound]
bacterial growth (turbidity of the aqueous phase) (Staphylococcus aureus; 2 wt.-% in Plantanol, FIG. 18): no effect on the bacterial growth
bacterial growth (turbidity of the aqueous phase) (Staphylococcus aureus; 10 wt.-% in Plantanol, FIG. 18): completely inhibited the growth
amount needed relative to ferulic acid to achieve the same effect (Staphylococcus aureus): 40 times
bacterial growth (turbidity of the aqueous phase) (Escherichia coli; 10 wt.-% in Plantanol): distinctly reduced it

SMILES: O=c1c(O)c(-c2ccc(O)c(O)c2)oc2cc(O)cc(O)c12 [quercetin]
oxidative stability of the biofuel (EN 14214) [1, 3]: enough to make the biofuel fulfil the standard

effect of addition on oxidative stability ([1]; 167 ppm added to the system containing 333 ppm DHB, FIG. 16): no effect on the overall stability
SMILES: O=C1O[C@H]([C@@H](O)CO)C(O)=C1O [vitamin C, ascorbic acid]
effect of addition on oxidative stability ([1]; 167 ppm added to the system containing 333 ppm GA, FIG. 16): distinct increase of the oxidative stability
effect of addition on oxidative stability ([1]; 167 ppm added to the system containing 333 ppm HT, FIG. 16): distinct increase of the oxidative stability

SMILES: O=C(O)c1cc(O)c(O)c(O)c1 [gallic acid]
oxidative stability of the biofuel (EN 14214) [1, 3]: enough to make the biofuel fulfil the standard
oxidative stability of the biofuel (EN 14214) [1, 5]: stabilization above the minimum of EN 14214
induction time versus concentration, ranking ([1]; solketal system, higher concentrations, FIG. 11): most effective
bacterial growth (turbidity of the aqueous phase) (Staphylococcus aureus; [4]): distinctly reduced
effect on bacterial growth compared with Staphylococcus aureus (Escherichia coli): smaller effect on the E.-coli bacteria than they had on the Staphylococcus aureus
amount of solketal sufficient to solubilize the additive ([2]; 500 ppm of additive in Plantanol): < 0.5 wt %

SMILES: Cc1ccc(C(C)C)cc1O [Carvacrol, reference compound]
bacterial growth (turbidity of the aqueous phase) (Staphylococcus aureus; 2 wt.-% in Plantanol, FIG. 18): no effect on the bacterial growth
bacterial growth (turbidity of the aqueous phase) (Staphylococcus aureus; 10 wt.-% in Plantanol, FIG. 18): completely inhibited the growth
amount needed relative to ferulic acid to achieve the same effect (Staphylococcus aureus): 40 times
bacterial growth (turbidity of the aqueous phase) (Escherichia coli; 10 wt.-% in Plantanol): distinctly reduced it

SMILES: OCCc1ccc(O)c(O)c1 [hydroxytyrosol]
oxidative stability of the biofuel (EN 14214) [1, 3]: enough to make the biofuel fulfil the standard
oxidative stability of the biofuel (EN 14214) [1, 5]: stabilization above the minimum of EN 14214
